From the kinase profiling compilation of Christmann-Franck et al. (2016)
Where “and” joins values, the source holds several entries; their conditions need not be identical. Equal values may be shown once.

Assays:
Experiment in all cases: radiometric filter-binding kinase assay, Kinase HotSpot
Conditions in all cases: compound 0.5 µM; ATP 10 µM
STK33 (human) = STK33 (human) (UniProt Q9BYT3)
CDK9 CCNK (human) = CDK9 CCNK (human) (UniProt O75909+P50750)
MAPK11 (human) = MAPK11 (human) (UniProt Q15759)
PNCK (human) = PNCK (human) (UniProt Q6P2M8)
Chain of PNCK (human) (Q6P2M8 whole entry, looked up): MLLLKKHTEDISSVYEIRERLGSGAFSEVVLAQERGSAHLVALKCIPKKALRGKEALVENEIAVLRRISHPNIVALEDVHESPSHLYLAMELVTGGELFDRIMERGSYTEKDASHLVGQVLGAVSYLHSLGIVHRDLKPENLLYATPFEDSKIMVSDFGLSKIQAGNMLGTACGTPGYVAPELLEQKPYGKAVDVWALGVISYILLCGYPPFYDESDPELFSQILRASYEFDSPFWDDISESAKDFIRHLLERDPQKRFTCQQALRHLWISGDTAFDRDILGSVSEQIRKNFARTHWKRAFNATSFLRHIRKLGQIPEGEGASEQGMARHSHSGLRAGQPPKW

DYRK1B (human) = DYRK1B (human) (UniProt Q9Y463)
MST1R (human) = MST1R (human) (UniProt Q04912)
PRKCD (human) = PRKCD (human) (UniProt Q05655)
CSNK1E (human) = CSNK1E (human) (UniProt P49674)
Chain of CSNK1E (human) (P49674 whole entry, looked up): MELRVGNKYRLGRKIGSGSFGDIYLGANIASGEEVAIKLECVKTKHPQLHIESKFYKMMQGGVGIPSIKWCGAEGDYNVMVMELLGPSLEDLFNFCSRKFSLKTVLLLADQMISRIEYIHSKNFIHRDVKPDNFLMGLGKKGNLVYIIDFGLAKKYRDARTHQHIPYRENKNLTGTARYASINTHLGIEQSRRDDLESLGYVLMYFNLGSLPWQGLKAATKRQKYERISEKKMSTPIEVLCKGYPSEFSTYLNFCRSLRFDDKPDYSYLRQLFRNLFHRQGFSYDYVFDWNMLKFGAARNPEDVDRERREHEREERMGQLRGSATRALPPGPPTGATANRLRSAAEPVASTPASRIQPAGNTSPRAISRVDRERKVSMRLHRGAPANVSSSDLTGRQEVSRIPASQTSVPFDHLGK

VRK1 (human) = VRK1 (human) (UniProt Q99986)
CAMK1 (human) = CAMK1 (human) (UniProt Q14012)
CSK (human) = CSK (human) (UniProt P41240)
Chain of CSK (human) (P41240 whole entry, looked up): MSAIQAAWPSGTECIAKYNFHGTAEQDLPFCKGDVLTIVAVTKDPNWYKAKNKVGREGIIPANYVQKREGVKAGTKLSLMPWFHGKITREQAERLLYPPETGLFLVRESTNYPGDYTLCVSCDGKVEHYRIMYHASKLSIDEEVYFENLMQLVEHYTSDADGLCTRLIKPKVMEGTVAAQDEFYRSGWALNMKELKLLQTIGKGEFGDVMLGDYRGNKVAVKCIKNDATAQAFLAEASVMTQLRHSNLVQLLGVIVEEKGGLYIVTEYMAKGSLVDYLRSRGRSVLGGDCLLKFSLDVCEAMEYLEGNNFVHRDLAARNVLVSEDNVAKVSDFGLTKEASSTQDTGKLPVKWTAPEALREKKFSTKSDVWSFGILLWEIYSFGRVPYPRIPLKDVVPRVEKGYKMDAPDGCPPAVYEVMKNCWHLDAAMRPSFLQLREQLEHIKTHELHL

DYRK1A (human) = DYRK1A (human) (UniProt Q13627)
CDK3 CCNE1 (human) = CDK3 CCNE1 (human) (UniProt Q00526+P24864)
CSNK2A2 (human) = CSNK2A2 (human) (UniProt P19784)
Chain of CSNK2A2 (human) (P19784 whole entry, looked up): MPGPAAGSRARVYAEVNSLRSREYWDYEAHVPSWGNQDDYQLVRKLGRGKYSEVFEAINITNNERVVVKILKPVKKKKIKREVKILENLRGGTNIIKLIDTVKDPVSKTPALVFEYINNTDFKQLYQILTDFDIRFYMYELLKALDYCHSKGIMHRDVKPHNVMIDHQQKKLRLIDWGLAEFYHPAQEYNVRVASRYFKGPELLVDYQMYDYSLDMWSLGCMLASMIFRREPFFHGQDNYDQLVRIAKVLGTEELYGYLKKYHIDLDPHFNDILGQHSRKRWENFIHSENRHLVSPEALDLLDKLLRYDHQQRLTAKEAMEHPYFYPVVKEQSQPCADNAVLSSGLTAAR

MAP2K2 (human) = MAP2K2 (human) (UniProt P36507)
EPHA3 (human) = EPHA3 (human) (UniProt P29320)
CSNK1G1 (human) = CSNK1G1 (human) (UniProt Q9HCP0)
PRKCH (human) = PRKCH (human) (UniProt P24723)
BMX (human) = BMX (human) (UniProt P51813)
GRK6 (human) = GRK6 (human) (UniProt P43250)
BRSK1 (human) = BRSK1 (human) (UniProt Q8TDC3)
FLT1 (human) = FLT1 (human) (UniProt P17948)
Chain of FLT1 (human) (P17948 whole entry, looked up): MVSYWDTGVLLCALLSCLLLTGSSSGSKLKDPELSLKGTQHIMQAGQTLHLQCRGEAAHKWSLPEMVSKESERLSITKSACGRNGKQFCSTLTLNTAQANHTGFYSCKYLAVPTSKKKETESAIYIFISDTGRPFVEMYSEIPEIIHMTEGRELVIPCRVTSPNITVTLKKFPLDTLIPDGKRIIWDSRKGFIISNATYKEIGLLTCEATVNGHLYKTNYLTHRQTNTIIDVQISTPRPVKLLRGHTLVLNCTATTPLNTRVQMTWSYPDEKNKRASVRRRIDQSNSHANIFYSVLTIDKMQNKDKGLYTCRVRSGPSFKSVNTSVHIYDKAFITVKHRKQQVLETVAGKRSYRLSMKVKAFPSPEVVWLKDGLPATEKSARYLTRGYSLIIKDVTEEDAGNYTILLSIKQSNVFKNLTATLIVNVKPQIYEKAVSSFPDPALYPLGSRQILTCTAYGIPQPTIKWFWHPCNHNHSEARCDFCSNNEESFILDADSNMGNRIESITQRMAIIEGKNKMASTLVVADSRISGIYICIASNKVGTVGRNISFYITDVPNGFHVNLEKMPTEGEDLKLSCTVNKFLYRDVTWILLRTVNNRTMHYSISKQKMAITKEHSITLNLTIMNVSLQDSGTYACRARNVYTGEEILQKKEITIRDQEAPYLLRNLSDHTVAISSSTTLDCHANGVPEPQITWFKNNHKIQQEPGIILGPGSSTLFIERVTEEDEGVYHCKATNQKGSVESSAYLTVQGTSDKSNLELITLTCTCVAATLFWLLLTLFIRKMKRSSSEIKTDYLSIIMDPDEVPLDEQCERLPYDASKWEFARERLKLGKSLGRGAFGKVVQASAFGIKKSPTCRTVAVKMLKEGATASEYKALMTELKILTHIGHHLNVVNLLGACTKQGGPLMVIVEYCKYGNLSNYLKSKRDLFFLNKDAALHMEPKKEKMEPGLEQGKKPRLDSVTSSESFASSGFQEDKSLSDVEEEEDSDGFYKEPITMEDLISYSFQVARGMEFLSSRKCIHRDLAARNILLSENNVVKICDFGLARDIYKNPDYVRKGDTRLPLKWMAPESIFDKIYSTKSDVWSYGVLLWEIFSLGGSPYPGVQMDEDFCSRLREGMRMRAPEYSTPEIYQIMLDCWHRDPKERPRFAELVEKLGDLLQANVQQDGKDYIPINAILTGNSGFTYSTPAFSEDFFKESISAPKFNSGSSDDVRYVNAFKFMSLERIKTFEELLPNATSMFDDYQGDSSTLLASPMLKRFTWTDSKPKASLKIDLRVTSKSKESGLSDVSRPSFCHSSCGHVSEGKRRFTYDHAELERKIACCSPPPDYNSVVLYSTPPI

GRK5 (human) = GRK5 (human) (UniProt P34947)
INSR (human) = INSR (human) (UniProt P06213)
NEK11 (human) = NEK11 (human) (UniProt Q8NG66)
MLTK (human) = MLTK (human) (UniProt Q9NYL2)
MAP3K5 (human) = MAP3K5 (human) (UniProt Q99683)
DYRK2 (human) = DYRK2 (human) (UniProt Q92630)
RPS6KA2 KD1 KD2 (human) = RPS6KA2 KD1 KD2 (human) (UniProt Q15349)
Chain of RPS6KA2 KD1 KD2 (human) (Q15349 whole entry, looked up): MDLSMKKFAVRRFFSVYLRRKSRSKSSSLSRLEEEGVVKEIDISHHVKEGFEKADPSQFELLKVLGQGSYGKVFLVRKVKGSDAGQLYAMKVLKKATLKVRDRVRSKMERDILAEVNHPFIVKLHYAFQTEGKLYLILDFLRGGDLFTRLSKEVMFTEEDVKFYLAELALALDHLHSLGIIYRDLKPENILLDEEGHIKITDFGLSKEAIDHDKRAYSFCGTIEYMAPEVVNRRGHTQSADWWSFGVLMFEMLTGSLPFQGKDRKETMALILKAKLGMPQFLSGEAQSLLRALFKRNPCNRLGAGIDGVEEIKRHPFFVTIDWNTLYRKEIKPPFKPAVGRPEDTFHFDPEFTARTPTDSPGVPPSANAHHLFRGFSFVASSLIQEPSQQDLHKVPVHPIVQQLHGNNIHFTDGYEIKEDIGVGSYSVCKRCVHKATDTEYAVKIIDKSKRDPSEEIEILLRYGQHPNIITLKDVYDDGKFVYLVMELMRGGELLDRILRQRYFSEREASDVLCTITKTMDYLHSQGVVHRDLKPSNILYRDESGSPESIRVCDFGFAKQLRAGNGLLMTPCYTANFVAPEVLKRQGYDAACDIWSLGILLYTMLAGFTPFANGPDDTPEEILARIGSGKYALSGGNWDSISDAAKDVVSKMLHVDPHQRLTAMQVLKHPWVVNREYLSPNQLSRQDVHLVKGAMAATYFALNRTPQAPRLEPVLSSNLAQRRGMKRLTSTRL

MAPK9 (human) = MAPK9 (human) (UniProt P45984)
AURKC (human) = AURKC (human) (UniProt Q9UQB9)
MYLK2 (human) = MYLK2 (human) (UniProt Q9H1R3)
NEK1 (human) = NEK1 (human) (UniProt Q96PY6)
EPHB1 (human) = EPHB1 (human) (UniProt P54762)
EPHA1 (human) = EPHA1 (human) (UniProt P21709)
FGR (human) = FGR (human) (UniProt P09769)
Chain of FGR (human) (P09769 whole entry, looked up): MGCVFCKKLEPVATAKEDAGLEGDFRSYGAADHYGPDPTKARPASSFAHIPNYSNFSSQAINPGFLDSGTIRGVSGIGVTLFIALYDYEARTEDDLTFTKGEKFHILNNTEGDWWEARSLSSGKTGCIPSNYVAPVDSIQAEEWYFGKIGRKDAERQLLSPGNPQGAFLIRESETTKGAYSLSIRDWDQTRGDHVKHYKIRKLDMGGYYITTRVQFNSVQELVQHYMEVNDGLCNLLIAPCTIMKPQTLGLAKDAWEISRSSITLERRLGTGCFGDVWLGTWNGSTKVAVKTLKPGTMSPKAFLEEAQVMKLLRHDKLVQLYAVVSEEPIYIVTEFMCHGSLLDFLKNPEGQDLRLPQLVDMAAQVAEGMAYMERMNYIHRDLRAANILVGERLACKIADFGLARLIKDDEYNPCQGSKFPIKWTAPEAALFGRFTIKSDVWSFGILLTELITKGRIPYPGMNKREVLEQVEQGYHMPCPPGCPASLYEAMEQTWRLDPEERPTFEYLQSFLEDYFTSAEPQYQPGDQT

SGK2 (human) = SGK2 (human) (UniProt Q9HBY8)
TXK (human) = TXK (human) (UniProt P42681)
PRKG1 (human) = PRKG1 (human) (UniProt Q13976)
Chain of PRKG1 (human) (Q13976 whole entry, looked up): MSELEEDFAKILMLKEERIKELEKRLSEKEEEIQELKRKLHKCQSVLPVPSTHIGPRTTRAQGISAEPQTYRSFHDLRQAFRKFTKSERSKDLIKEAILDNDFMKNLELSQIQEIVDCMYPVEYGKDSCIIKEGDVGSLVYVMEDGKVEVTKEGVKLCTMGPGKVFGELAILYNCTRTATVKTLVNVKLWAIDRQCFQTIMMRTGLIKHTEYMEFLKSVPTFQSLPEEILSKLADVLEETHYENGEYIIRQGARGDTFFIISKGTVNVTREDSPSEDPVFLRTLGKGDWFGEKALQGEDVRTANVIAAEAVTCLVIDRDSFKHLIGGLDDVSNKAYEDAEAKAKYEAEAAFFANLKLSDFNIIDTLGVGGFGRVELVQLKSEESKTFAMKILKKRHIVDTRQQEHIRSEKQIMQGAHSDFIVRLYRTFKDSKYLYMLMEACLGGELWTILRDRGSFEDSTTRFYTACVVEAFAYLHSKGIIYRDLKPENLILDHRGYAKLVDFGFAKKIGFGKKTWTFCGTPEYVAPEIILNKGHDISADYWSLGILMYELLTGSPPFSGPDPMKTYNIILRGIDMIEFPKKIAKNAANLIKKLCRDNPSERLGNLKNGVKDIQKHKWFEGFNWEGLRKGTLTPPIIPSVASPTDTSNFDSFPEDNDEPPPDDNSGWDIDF

CDK2 CCNA2 (human) = CDK2 CCNA2 (human) (UniProt P24941+P20248)
JAK2 JH1 JH2 (human) = JAK2 JH1 JH2 (human) (UniProt O60674)
HIPK3 (human) = HIPK3 (human) (UniProt Q9H422)

## Cc1cccc(-c2nc(C(C)(C)C)[nH]c2-c2ccc3c(c2)OCO3)n1
STK33 (human)
  residual activity: 89%
CDK9 CCNK (human)
  residual activity: 106%
MAPK11 (human)
  residual activity: 93%
PNCK (human)
  residual activity: 101%
DYRK1B (human)
  residual activity: 99.6%
MST1R (human)
  residual activity: 101%
PRKCD (human)
  residual activity: 104%
CSNK1E (human)
  residual activity: 71.5%
VRK1 (human)
  residual activity: 97.5%
CAMK1 (human)
  residual activity: 99.8%
CSK (human)
  residual activity: 102%
DYRK1A (human)
  residual activity: 98.4%
CDK3 CCNE1 (human)
  residual activity: 97.6%
CSNK2A2 (human)
  residual activity: 83.6%
MAP2K2 (human)
  residual activity: 108%
EPHA3 (human)
  residual activity: 101%
CSNK1G1 (human)
  residual activity: 79.4%
PRKCH (human)
  residual activity: 104%
BMX (human)
  residual activity: 82%
GRK6 (human)
  residual activity: 101%
BRSK1 (human)
  residual activity: 101%
FLT1 (human)
  residual activity: 84.3%
GRK5 (human)
  residual activity: 108%
INSR (human)
  residual activity: 87.6%
NEK11 (human)
  residual activity: 90.3%
MLTK (human)
  residual activity: 97.8%
MAP3K5 (human)
  residual activity: 103%
DYRK2 (human)
  residual activity: 108%
RPS6KA2 KD1 KD2 (human)
  residual activity: 96.4%
MAPK9 (human)
  residual activity: 98.2%
AURKC (human)
  residual activity: 91.4%
MYLK2 (human)
  residual activity: 99.2%
NEK1 (human)
  residual activity: 78.9%
EPHB1 (human)
  residual activity: 95.5%
EPHA1 (human)
  residual activity: 124%
FGR (human)
  residual activity: 99.9%
SGK2 (human)
  residual activity: 100%
TXK (human)
  residual activity: 100%
PRKG1 (human)
  residual activity: 74.6% and 91%
CDK2 CCNA2 (human)
  residual activity: 117%

## N#C/C(=C\c1ccc(O)c(O)c1)C(=O)NCc1ccccc1
STK33 (human)
  residual activity: 94.9%
CDK9 CCNK (human)
  residual activity: 102%
MAPK11 (human)
  residual activity: 98.7%
PNCK (human)
  residual activity: 97.1%
DYRK1B (human)
  residual activity: 106%
MST1R (human)
  residual activity: 102%
PRKCD (human)
  residual activity: 91.1%
CSNK1E (human)
  residual activity: 86.3%
VRK1 (human)
  residual activity: 97%
CAMK1 (human)
  residual activity: 93%
CSK (human)
  residual activity: 101%
JAK2 JH1 JH2 (human)
  residual activity: 98.1%
DYRK1A (human)
  residual activity: 102%
CSNK2A2 (human)
  residual activity: 81.9%
MAP2K2 (human)
  residual activity: 105%
EPHA3 (human)
  residual activity: 97.2%
CSNK1G1 (human)
  residual activity: 102%
PRKCH (human)
  residual activity: 95.5%
BMX (human)
  residual activity: 88.8%
GRK6 (human)
  residual activity: 101%
BRSK1 (human)
  residual activity: 104%
FLT1 (human)
  residual activity: 88%
GRK5 (human)
  residual activity: 108%
INSR (human)
  residual activity: 93.8%
NEK11 (human)
  residual activity: 95.4%
HIPK3 (human)
  residual activity: 96.6%
MAP3K5 (human)
  residual activity: 104%
DYRK2 (human)
  residual activity: 103%
RPS6KA2 KD1 KD2 (human)
  residual activity: 94.2%
MAPK9 (human)
  residual activity: 103%
AURKC (human)
  residual activity: 95.5%
MYLK2 (human)
  residual activity: 97.9%
NEK1 (human)
  residual activity: 97.3%
EPHB1 (human)
  residual activity: 87.4%
EPHA1 (human)
  residual activity: 99.4%
FGR (human)
  residual activity: 93.7%
SGK2 (human)
  residual activity: 101%
TXK (human)
  residual activity: 104%
PRKG1 (human)
  residual activity: 89.2% and 92.6%
CDK2 CCNA2 (human)
  residual activity: 99.2%
